Measured values taken from patent US7098334B2 (Industrial Research Limited, priority 2002, dated 2006).

Assays:
[1] = system: Lewis lung carcinoma cells; test: Radiation sensitizing effect on Lewis lung carcinoma cells; assay type: cell-based; settings: 5′-methylthio-ImmA at 2 μM; 10 Gy X-ray; cells counted by Trypan Blue after 48 hrs
Description: Lewis lung carcinoma cells (1×10^6) were plated and allowed to adhere overnight in 2 mL of DMEL medium substituted with 10% fetal bovine serum, 1% Pen-Strep, 2.5% Na-Pyruvate, 1% non-essential amino acids in 6 well plates. 50 μM MTA, 50 μM MTA+2 μM 5′-methylthio-ImmA or 2 μM 5′-methylthio-ImmA was then added in 1 mL of the same medium as indicated. Control wells were treated with medium without any additions. This treatment was allowed to continue for 6 hours. In each experiment one set of treated cells were subjected to 10 Gy of X-ray irradiation and a control set received no irridation. Both irradiated and unirradiated cells were then cultured for another 48 hours in the presence of MTA±5′-methylthio-ImmA. Manual counting of living and dead cells was done by Trypan Blue dye exclusion following 48 hrs of growth. (Approximate doubling time for Lewis Lung cells was 24 hours.)

mouse liver MTAP = target: T1, mouse liver MTAP (Mus musculus, UniProt Q9CQ65); test: MTAP activity in liver extracts of treated mice; assay type: in vivo
T1 construct: from tissue; host or cells: mouse liver protein extract
T1 sequence (Q9CQ65 1-283): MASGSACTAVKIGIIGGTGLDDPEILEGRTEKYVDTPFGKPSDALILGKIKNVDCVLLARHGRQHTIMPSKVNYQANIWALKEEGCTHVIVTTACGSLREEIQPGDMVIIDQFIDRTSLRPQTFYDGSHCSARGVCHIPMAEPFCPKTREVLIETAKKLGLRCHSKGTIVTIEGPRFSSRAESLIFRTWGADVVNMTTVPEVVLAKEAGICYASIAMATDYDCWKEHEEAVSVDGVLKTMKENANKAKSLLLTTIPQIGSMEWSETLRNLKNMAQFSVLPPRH
Description: (§1) Following 30 to 60 min, blood was collected or mice were sacrificed and the liver removed for tissue analysis. MTAP activity in mouse blood was measured by the conversion of radioactive MTA to radioactive 5-methylthio-α-D-ribose 1-phosphate (MTR-1P). The assay mixture contained 50 mM phosphate buffer, 1 mM dithiothreitol, 26 μM [5′-^14C]MTA with specific radioactivity of 2 μCi/μmole, 0.5% triton X-100, and the desired amount of tissue sample, in a total volume of 100 μL. Reactions were stopped at various times by the addition of perchloric acid to decrease the pH to 2.0. The protein precipitate was removed by centrifugation, and the supernatant was neutralized to near pH 7 before being placed on a charcoal column. The column was eluted with buffer near pH 7. The product MTR-1P elutes, while unreacted [5′-^14C]MTA remains on the column. The amount of MTAP activity from control and treated mice is compared.

[2] = target: T2, MTAP activity in mouse blood (Mus musculus, UniProt Q9CQ65); test: MTAP activity in blood of treated mice; assay type: in vivo; settings: interperitoneal injection of 10 micromoles; blood sampled 30 min following injection
T2 construct: from tissue; host or cells: mouse blood
T2 sequence (Q9CQ65 1-283): T1 sequence (Q9CQ65 1-283)
Description: as §1, with “5′-Methylthio-Immucillin-A (5′-methylthio-ImmA) (10 micromoles) was administered to mice orally, by interperitoneal injection or by intravenous injection. Following” for “Following”

[3] = oral administration of 10 μmoles

CSC[C@H]1N[C@@H](c2c[nH]c3c(N)ncnc23)C(O)[C@H]1O (stereo partly drawn) [5′-methylthio-ImmA]
effect on cell growth and irradiation damage (FIG. 2) [1]: acts in a similar manner to 50 μM MTA
reduction of MTAP activity of liver extract (mouse liver MTAP; intraperitoneal injection of 0.1 micromole): 70%
reduction of MTAP activity of liver extract (mouse liver MTAP; intraperitoneal injection of 1.0 micromole): 77%
MTAP activity in liver extracts (in words) (mouse liver MTAP; intravenous injection): no detectable MTAP activity
inhibition of liver MTAP (mouse liver MTAP; intravenous injection): > 95%
inhibition of liver MTAP (mouse liver MTAP; [3]): 90%
oral availability to MTAP inside tissues (in words) (mouse liver MTAP; [3]): orally available
rate of conversion of MTA to products by MTAP in extracts of liver (mouse liver MTAP; oral administration of 10 μmoles, control 1.0): 0.09 nMole/min/mg of liver protein extract
inhibition of MTAP in mouse blood compared to control blood [2]: > 90%
